Earlier results as cited in US20220362140A1, “Novel Dental Care and Cleansing Composition” (GROUP PHARMACEUTICALS, priority 2020, published 2022).

Settings: much higher concentration

Structure (SMILES): O=BO[O-].[Na+] [Sodium perboarate]
- Concentration that is toxic: 25%
